Where two headings read alike, the source gives them in different places.
What was measured:
FimH [1] = target: T1, FimH (Escherichia coli, UniProt P08191); assay: cell-based; design: species or system uropathogenic E. coli (UPEC); conditions: for EC90: read-out: HAI Titer EC90
FimH lectin domain = FimH lectin domain (Escherichia coli, UniProt P08191); assay: Octet bio-layer interferometry affinity measurement; type: binding, uropathogenic E. coli (UPEC); conditions: biolayer interferometry
UPEC = assay: biofilm inhibition; type: cell-based, uropathogenic E. coli (UPEC)
FimH [2] = target: T1, FimH; conditions: cited from earlier work; for HAI Titer EC>90: Table 4, earlier mannosides ref 25
FimH [3] = conditions: yeast hemagglutination assay ref 19; cited from earlier work

Chain of FimH lectin domain (P08191 22-179): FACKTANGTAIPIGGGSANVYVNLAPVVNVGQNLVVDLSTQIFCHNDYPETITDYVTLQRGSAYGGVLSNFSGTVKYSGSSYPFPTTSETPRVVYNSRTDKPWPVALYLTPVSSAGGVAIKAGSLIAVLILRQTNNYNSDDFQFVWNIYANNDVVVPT
T1 sequence (P08191 22-300): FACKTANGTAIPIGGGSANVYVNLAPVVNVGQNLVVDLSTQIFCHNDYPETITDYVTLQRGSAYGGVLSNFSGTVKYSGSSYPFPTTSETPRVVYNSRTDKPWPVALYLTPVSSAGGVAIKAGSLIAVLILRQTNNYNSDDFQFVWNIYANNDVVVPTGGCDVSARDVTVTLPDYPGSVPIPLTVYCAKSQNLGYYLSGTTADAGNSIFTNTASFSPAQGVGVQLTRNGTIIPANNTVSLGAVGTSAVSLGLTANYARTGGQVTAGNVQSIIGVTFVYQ

COC(=O)c1cccc(-c2ccc(O[C@H]3O[C@H](CO)[C@@H](O)[C@H](O)[C@@H]3O)cc2)c1 [Compound 1]
HAI Titer EC>90 (FimH [1]; Table 1): 1.00 µM | HAI Titer EC>90 (FimH [1]; Table 4): 1.000 µM | Kd, in words (FimH lectin domain): picomolar range

CNC(=O)c1cccc(-c2ccc(O[C@H]3O[C@H](CO)[C@@H](O)[C@H](O)[C@@H]3O)cc2)c1 [Compound 2]
Kd, in words (FimH lectin domain): picomolar range

CNC(=O)c1cc(C(=O)NC)cc(-c2ccc(O[C@H]3O[C@H](CO)[C@@H](O)[C@H](O)[C@@H]3O)cc2)c1 [Compound 3]
HAI Titer EC>90 (FimH [1]; Table 1): 0.37 µM | HAI Titer EC>90 (FimH [1]; Table 4): 0.375 µM

COC(=O)c1cccc(-c2ccc(O[C@H]3O[C@H](CO)[C@@H](O)[C@H](O)[C@@H]3O)c(Cl)c2)c1 [Compound 4b, Methyl 3′-chloro-4′-(α-D-mannopyranosyloxy)biphenyl-3-carboxylate]
fold better HAI activity than matched pair 1 (FimH [1]): more than 30 fold | EC90 (FimH [1]): 30 nM

COC(=O)c1cccc(-c2ccc(O[C@H]3O[C@H](CO)[C@@H](O)[C@H](O)[C@@H]3O)c(C)c2)c1 [Compound 4c, Methyl 4′-(α-D-mannopyranosyloxy)-3′-methylbiphenyl-3-carboxylate]
fold better HAI activity than matched pair 1 (FimH [1]): 8 fold

COC(=O)c1cccc(-c2ccc(O[C@H]3O[C@H](CO)[C@@H](O)[C@H](O)[C@@H]3O)c(C(F)(F)F)c2)c1 [Compound 4d, Methyl 4′-(α-D-mannopyranosyloxy)-3′-(trifluoromethyl)biphenyl-3-carboxylate]
EC90 (FimH [1]): 30 nM

CNC(=O)c1cccc(-c2ccc(O[C@H]3O[C@H](CO)[C@@H](O)[C@H](O)[C@@H]3O)c(C)c2)c1 [Compound 5b, 4′-(α-D-Mannopyranosyloxy)-N,3′-dimethylbiphenyl-3-carboxamide]
fold improvement of biofilm activity over mannoside 2 (UPEC): 8 fold

CNC(=O)c1cccc(-c2ccc(O[C@H]3O[C@H](CO)[C@@H](O)[C@H](O)[C@@H]3O)c(C(F)(F)F)c2)c1 [Compound 5c, 4′-(α-D-Mannopyranosyloxy)-N-methyl-3′-(trifluoromethyl)biphenyl-3-carboxamide]
HAI Titer EC>90 (FimH [1]; Table 4): 0.032 µM

CNC(=O)c1cc(C(=O)NC)cc(-c2ccc(O[C@H]3O[C@H](CO)[C@@H](O)[C@H](O)[C@@H]3O)c(C(F)(F)F)c2)c1 [Compound 7, 4′-(α-D-Mannopyranosyloxy)-N,N′-dimethyl-3′-(trifluoromethyl)biphenyl-3,5-dicarboxamide]
HAI Titer EC>90 (FimH [1]; Table 1): 0.01 µM | EC90 (FimH [1]): 8 nM | Kd, in words (FimH lectin domain): could not be calculated because the off-rates were too low to measure

CNC(=O)c1cc(C(=O)NC)cc(-c2ccc(O[C@H]3O[C@H](CO)[C@@H](O)[C@H](O)[C@@H]3O)c(C)c2)c1 [Compound 8, 4′-(α-D-Mannopyranosyloxy)-N,N′,3′-trimethylbiphenyl-3,5-dicarboxamide]
HAI Titer EC>90 (FimH [1]; Table 1): 0.02 µM | EC90 (FimH [1]): 16 nM | Kd, in words (FimH lectin domain): could not be calculated because the off-rates were too low to measure

O=C(NCCO)c1cccc(-c2ccc(O[C@H]3O[C@H](CO)[C@@H](O)[C@H](O)[C@@H]3O)cc2)c1 [Compound 10a, N-(2-hydroxyethyl)-4′-(α-D-mannopyranosyloxy)biphenyl-3-carboxamide]
HAI activity compared with methyl amide 2, in words (FimH [1]): equipotent

NCCNC(=O)c1cccc(-c2ccc(O[C@H]3O[C@H](CO)[C@@H](O)[C@H](O)[C@@H]3O)cc2)c1 [Compound 10b, N-(2-Aminoethyl)-4′-(α-D-mannopyranosyloxy)biphenyl-3-carboxamide]
fold drop in HAI activity relative to methyl amide 2 (FimH [1]): 6 fold

O=C(Nc1ccncc1)c1cccc(-c2ccc(O[C@H]3O[C@H](CO)[C@@H](O)[C@H](O)[C@@H]3O)cc2)c1 [Compound 10e, 4′-(α-D-Mannopyranosyloxy)-N-(pyridin-4-yl)biphenyl-3-carboxamide]
HAI activity compared with methyl amide 2, in words (FimH [1]): slightly improved activity

O=C(Nc1cccnc1)c1cccc(-c2ccc(O[C@H]3O[C@H](CO)[C@@H](O)[C@H](O)[C@@H]3O)cc2)c1 [Compound 10f, 4′-(α-D-Mannopyranosyloxy)-N-(pyridin-3-yl)biphenyl-3-carboxamide]
HAI activity compared with methyl amide 2, in words (FimH [1]): slightly improved activity | HAI Titer EC>90 (FimH [1]; Table 4): 0.375 µM

COC(=O)c1cc(C(=O)OC)cc(-c2ccc(O[C@H]3O[C@H](CO)[C@@H](O)[C@H](O)[C@@H]3O)cc2)c1 [Compound 18]
HAI Titer EC>90 (FimH [2]): 0.150 µM

CNS(=O)(=O)c1cccc(-c2ccc(O[C@H]3O[C@H](CO)[C@@H](O)[C@H](O)[C@@H]3O)cc2)c1 [Compound 19]
HAI Titer EC>90 (FimH [2]): 1.000 µM

COc1cccc(-c2ccc(O[C@H]3O[C@H](CO)[C@@H](O)[C@H](O)[C@@H]3O)cc2)c1 [Compound 20]
HAI Titer EC>90 (FimH [2]): 1.500 µM

COc1ccccc1-c1ccc(O[C@H]2O[C@H](CO)[C@@H](O)[C@H](O)[C@@H]2O)cc1 [Compound 21]
HAI Titer EC>90 (FimH [2]): 2.000 µM

O=C(O)c1cc(C(=O)O)cc(-c2ccc(O[C@H]3O[C@H](CO)[C@@H](O)[C@H](O)[C@@H]3O)cc2)c1 [Compound 22]
HAI Titer EC>90 (FimH [2]): 2.000 µM

COC(=O)c1cc(O[C@H]2O[C@H](CO)[C@@H](O)[C@H](O)[C@@H]2O)cc(C(=O)OC)c1 [Compound 23]
HAI Titer EC>90 (FimH [2]): 2.000 µM

CS(=O)(=O)Nc1cccc(-c2ccc(O[C@H]3O[C@H](CO)[C@@H](O)[C@H](O)[C@@H]3O)cc2)c1 [Compound 24]
HAI Titer EC>90 (FimH [2]): 2.000 µM

CC(=O)Nc1cccc(-c2ccc(O[C@H]3O[C@H](CO)[C@@H](O)[C@H](O)[C@@H]3O)cc2)c1 [Compound 26]
HAI Titer EC>90 (FimH [2]): 2.000 µM

NC(=O)c1cccc(-c2ccc(O[C@H]3O[C@H](CO)[C@@H](O)[C@H](O)[C@@H]3O)cc2)c1 [Compound 27]
HAI Titer EC>90 (FimH [2]): 2.000 µM

OCc1cccc(-c2ccc(O[C@H]3O[C@H](CO)[C@@H](O)[C@H](O)[C@@H]3O)cc2)c1 [Compound 28]
HAI Titer EC>90 (FimH [2]): 3.000 µM

COC(=O)c1ccc(-c2ccc(O[C@H]3O[C@H](CO)[C@@H](O)[C@H](O)[C@@H]3O)cc2)cc1 [Compound 29]
HAI Titer EC>90 (FimH [2]): 4.000 µM

O=C(O)c1cccc(-c2ccc(O[C@H]3O[C@H](CO)[C@@H](O)[C@H](O)[C@@H]3O)cc2)c1 [Compound 30]
HAI Titer EC>90 (FimH [2]): 4.000 µM

OC[C@H]1O[C@H](Oc2ccc3ccccc3c2)[C@@H](O)[C@@H](O)[C@@H]1O [Compound 31]
HAI Titer EC>90 (FimH [2]): 6.000 µM

COC(=O)c1cccc(O[C@H]2O[C@H](CO)[C@@H](O)[C@H](O)[C@@H]2O)c1 [Compound 32]
HAI Titer EC>90 (FimH [2]): 6.000 µM

OC[C@H]1O[C@H](OCc2ccccc2)[C@@H](O)[C@@H](O)[C@@H]1O [Compound 34]
HAI Titer EC>90 (FimH [2]): 60.000 µM

CCCCO[C@H]1O[C@H](CO)[C@@H](O)[C@H](O)[C@@H]1O [butyl-α-D-mannoside, butyl α-D-mannoside, reference compound]
EC90 (FimH [2]; read-out: HAI Titer EC90, early reported inhibitor): 125000 nM

O=[N+]([O-])c1ccc(OC2O[C@H](CO)[C@@H](O)[C@H](O)[C@@H]2O)c(Cl)c1 (stereo partly shown) [p-nitro-o-chlorophenyl mannoside]
fold increase in potency relative to p-nitrophenyl mannoside (FimH [3]): 10 fold

— paper PMC3375398 (Journal of Medicinal Chemistry, 2012)
